Tests used:
[1] = test system: senescent primary human lung fibroblasts; test: Cellular bioenergetics (Seahorse OCR) in senescent primary human lung fibroblasts; type: cell-based; conditions: FIG. 4; compounds 0-300 nM; compared to the control (SIP cells without compound)
Experimental: Human primary lung fibroblasts were isolated from healthy volunteers and cultured in DMEM supplemented with 10% fetal calf serum and 1% pen/strep and […] L-glutamine, at 37° C., 5% CO2. To induce senescence, cells were seeded at a density of 50,000 cells per well in 250 μl of cell culture media onto Seahorse V7 plates and treated daily with fresh cell culture media containing […] H2O2 for 5 days, cells were then cultured with normal medium for a further 9 days. Senescence was confirmed by microscopy and staining for the senescence marker, senescence-associated-β-galactosidase (SA-βgal; Cell Signalling kit #9860). Cells were then treated with compounds (0-300 nM) for a further 24 h (controls are *SIP cells without compounds) and after this time, cellular bioenergetics determined using a Seahorse XFe24 extracellular flux analyser performed as described below. * SIP-senescence-induced phenotype
For the mitochondrial stress and glycolytic stress tests (Agilent, UK)Seahorse XFe24 sensor cartridges were hydrated with Seahorse XF calibrant solution and maintained at 37° C. in a non-CO2 incubator overnight. […] After incubation, plates were loaded onto Seahorse XFe24 Analyser and basal oxygen consumption rate (OCR) measured for 3 cycles. […] Extracellular acidification rate (ECAR) and Oxygen consumption rate (OCR) were measured for 3 baseline cycles and injection strategy initiated. […]

b.End3 cells [2] = test: Hyperglycaemia-induced mitochondrial dysfunction: mitochondrial membrane potential restore; type: cell-based; conditions: compound added on day 8 for two days
Experimental: Moreover, in cardiovascular diseases such as hypertension and diabetes a loss of endothelial function and cell death were observed [Poredos et al, 2021].
In order to induce hyperglycemia in b.End3 cells, a literature reported protocol Lorenzi et al 1985; Qu et al 2014] was followed. After trypsinisation, cells were diluted with supplemented DMEM (approximately 2 ml per flask) and consequently, cells from 3 or 4 different flasks were transferred in a 15 ml sterile conical centrifuge tube and centrifuged for 5 minutes, in order to separate the cells from the medium. Following that, the supernatant medium was removed and the cells were gently re-suspended and mixed with approximately 4 ml of fresh supplemented DMEM. 20 μl of this solution was added to 40 μl of trypan blue and 10 μl of the final solution was loaded onto a cell counting slide dual-chamber. Trypan blue allows to distinguish between live and dead cells. Indeed it is impermeable in live cells, while it is absorbed by dead cells. The number of cells per ml was measured using an automated cell counter. Commonly, the value found was […] and consequently, the cell solution was diluted, in order to obtain a concentration of 20,000 cells/well in the minimum volume necessary to fill a 96-well plate (200 μl/well, ≈13 ml for one plate, since the two external columns and rows were loaded with cell-free medium because they are susceptible to evaporation thus, the cell medium in these wells prevented the external cell-containing wells from evaporating). Cells were cultured overnight in a humidified incubator, in order to allow them to attach to the plate surface. Afterwards, the medium was removed (a part of the plate was kept with normal glucose DMEM as a […]) and supplemented high-glucose DMEM was added. Cells were cultured for 8 days since, in previous studies, it was determined that this is the minimum amount of time required to induce extensive mitochondrial dysfunction, such as excessive oxidant production and mitochondrial membrane hyperpolarisation Lorenzi et al 1985; Qu et al 2014]
On day 8, 10 μl/well (1/20 dilution factor) of a solution of an H2S donor or of a control compound or a PBS vehicle solution (with calcium and magnesium salts and 10% DMSO) was administered to cells. The final concentration of DMSO in cells was 0.5%: higher DMSO doses may be toxic for the cells. The cells were incubated for a further two days in the presence of the compound and after ten days of hyperglycaemia exposure, the amount of mitochondrial oxidant and mitochondrial membrane hyperpolarisation were determined. Noticeably in this procedure, in order to evaluate the cytoprotective activity of the novel compounds, the drugs were added only after the mitochondrial dysfunction in cells had already occurred. The protocol described is summarised in the scheme below:
On day 0, cells (20,000 cell/ml) were plated in a 96-well plate. Cells were cultured overnight at 37° C. On day 1, supplemented DMEM was removed and high-glucose supplemented DMEM was added. On day 8, an H2S donor compound (Examples 1-7), a control compound or altematively a vehicle solution was added to cells. On day 10, mitochondrial dysfunction were determined Lorenzi et al 1985; Qu et al 2014].

b.End3 cells [3] = test: Hyperglycaemia-induced mitochondrial dysfunction: mitochondrial superoxide (ROS) production, Mitosox Red; type: cell-based; conditions: 10 days hyperglycaemia, compound added on day 8 for two days
Experimental: In order to induce hyperglycemia in b.End3 cells, a literature reported protocol Lorenzi et al 1985; Qu et al 2014] was followed. After trypsinisation, cells were diluted with supplemented DMEM (approximately 2 ml per flask) and consequently, cells from 3 or 4 different flasks were transferred in a 15 ml sterile conical centrifuge tube and centrifuged for 5 minutes, in order to separate the cells from the medium. Following that, the supernatant medium was removed and the cells were gently re-suspended and mixed with approximately 4 ml of fresh supplemented DMEM. 20 μl of this solution was added to 40 μl of trypan blue and 10 μl of the final solution was loaded onto a cell counting slide dual-chamber. Trypan blue allows to distinguish between live and dead cells. Indeed it is impermeable in live cells, while it is absorbed by dead cells. The number of cells per ml was measured using an automated cell counter. […] Cells were cultured for 8 days since, in previous studies, it was determined that this is the minimum amount of time required to induce extensive mitochondrial dysfunction, such as excessive oxidant production and mitochondrial membrane hyperpolarisation Lorenzi et al 1985; Qu et al 2014]
On day 8, 10 μl/well (1/20 dilution factor) of a solution of an H2S donor or of a control compound or a PBS vehicle solution (with calcium and magnesium salts and 10% DMSO) was administered to cells. […] The cells were incubated for a further two days in the presence of the compound and after ten days of hyperglycaemia exposure, the amount of mitochondrial oxidant and mitochondrial membrane hyperpolarisation were determined. […]
On day 0, cells (20,000 cell/ml) were plated in a 96-well plate. […] On day 10, mitochondrial dysfunction were determined Lorenzi et al 1985; Qu et al 2014]. […]

b.End3 cells [4] = test: Toxicity (TC50); type: cell-based
C. elegans = test: Worm screening: mitochondrial network imaging in ageing C. elegans; type: in vivo; conditions: for reduction of networked mitochondria caused by aging: FIG. 2; for damage caused to mitochondrial network in aging: FIG. 3
Experimental: C. elegans strains were cultured at 20° C. on Petri dishes containing nematode growth medium (NGM) agar and a lawn of Escherichia coli OP50, unless stated otherwise. Animals for the study were age-synchronized by gravity synchronization from the L1 stage and allowed to grow to the desired day of adulthood. The C. elegans strains used in this study were Bristol strain N2 (WT) provided by the Caenorhabditis Genetics Center.
Mitochondrial imaging was used in day 1 adults, with or without treatment, to examine the mitochondrial network. Worms were cultured on test compounds as described. Approximately 20 day 1 adults were picked into 20 μL of M9 buffer on a microscope slide with a coverslip applied. Worms were imaged at 40× magnification using a Nikon Eclipse 50i microscope. The protocol used was as described by Oh and Kim. Briefly animals were assessed at day 4 and day 8 of adulthood, where the number of dead muscle cells was determined by quantifying the number of muscle cells that had lost their distinct circular nuclear GFP signal. Approximately 30 animals were picked into 20 μL of M9 buffer on a microscope slide with a coverslip applied. Worms were imaged at 10× magnification by using a Nikon Eclipse 50i microscope.

[5] = cited from earlier work
endothelial cells = conditions: cited from earlier work
Toxicity (TC50) = type: cell-based; conditions: mouse, b.End3 cells

Row | Compound | IC25 (Mitochondrial ROS level restore) (b.End3 cells [3]) | reduction of networked mitochondria caused by aging (C. elegans) | damage caused to mitochondrial network in aging (C. elegans) | IC50 (b.End3 cells [2]; BEND3, 10 days hyperglycaemia) | CC50 (Toxicity (TC50)) | further results
1 | CC1=C(CCCCCCCCCC(=O)Nc2ccc(C(N)=S)cc2)C(=O)c2ccccc2C1=O [Example 17, N-(4-carbamothioylphenyl)-10-(3-methyl-1,4-dioxo-1,4-dihydronaphthalen-2-yl)decanamide] |  |  |  |  |  | dysfunction of the mitochondria (loss of OCR) in senescent cells [1]: reversed
2 | 4-(3-sulfanylidene-3H-1,2- dithiol-5-yl)phenyl) 10-(4,5-dimethoxy-2- methyl-2,6-dioxocyclohexa- 1,4-dien-1-yl)decanoate [Example 2] | 10 nM | preserved | can be inhibited |  |  | IC50 (b.End3 cells [2]; 10 days hyperglycaemia): 6 nM; CC50 (b.End3 cells [4]): 130000 nM; fragmentation of the mitochondrial network caused by ageing (C. elegans; FIG. 1): inhibited
3 | Oc1ccc(-c2cc(=S)ss2)cc1 [ADTOH, 5-(4-hydroxyphenyl) -3H-1,2-dithiole-3-thione] |  | not | not |  |  | 
4 | O=C(CCCCCCCCC[P+](c1ccccc1)(c1ccccc1)c1ccccc1)Oc1ccc(-c2cc(=S)ss2)cc1.[Br-] [AP39] | 10 nM |  |  |  |  | IC50 (b.End3 cells [2]; 10 days hyperglycaemia): 4 nM; CC50 (b.End3 cells [4]): 8000 nM; aqueous solubility [5]: poor; ATP production (endothelial cells; endothelial cells): increase; protein persulfidation (endothelial cells; inside the mitochondria): increase; intracellular levels of H2S (endothelial cells; mainly inside the mitochondria, concentration-dependent): increase
5 | COC1=C(OC)C(=O)C(CCCCCCCCCCOC(=O)COc2ccc(-c3cc(=S)ss3)cc2)=C(C)C1=O [Example 1, 10-(4,5-dimethoxy-2-methyl-3,6-dioxocyclohexa-1,4-dien-1-yl)decyl 2-[4-(3-sulfanylidene-3H-1,2-dithiol-5-yl)phenoxy]acetate] | 6.5 nM |  |  | 0.4 nM | 147000 nM | 
6 | COC1=C(OC)C(=O)C(CCCCCCCCCC(=O)Oc2ccc(C(N)=S)cc2)=C(C)C1=O [Example 4, 4-carbamothioylphenyl 10-(4,5-dimethoxy-2-methyl-3,6-dioxocyclohexa-1,4-dien-1-yl)decanoate] |  |  |  | 1 nM | 100000 nM | 
7 | COC1=C(OC)C(=O)C(CCCCCCCCCCO)=C(C)C1=O [idebenone] |  | not | not |  |  | 
8 | COC1=C(OC)C(=O)C(CCCCCCCCCC(=O)Oc2ccc(-c3cc(=O)ss3)cc2)=C(C)C1=O [Example 3, 4-(3-oxo-3H-1,2-dithiol-5-yl)phenyl 10-(4,5-dimethoxy-2-methyl-3,6-dioxocyclohexa-1,4-dien-1-yl)decanonate] |  |  |  | 5 nM | 76000 nM | 

From patent US20240400536A1, “IDEBENONE DERIVATIVES AND THEIR USE IN TREATING PLANTS” (MITORX THERAPEUTICS LIMITED, priority 2021, published 2024)
